Structures can show the parent of a compound that is named as a salt.
How the values were obtained:
[1] = target: T1, DYRK1A (Homo sapiens, UniProt Q13627); experiment: DYRK1A in vitro kinase assay (ADP-Glo); type: biochemical; conditions: ATP 70 μM (Km), substrate 3 μM, enzyme 2 nM or 0.7 nM, 30 min, rt
T1 construct: purchased Carna Bioscence (Carna Biosciences) 04-130
Description: The compounds of the present invention were tested for their inhibitory activity against DYRK1A and DYRK1B kinases once or several times. When tested more than once, the data are reported herein as average value, wherein the average value, also referred to as the mean value, represents the sum of obtained values divided by the number of times tested.
DYRK-inhibitory activity of the compounds of the present invention was tested using the ADP-Glo™ assay as described in the following paragraphs. The procedure for determining the IC50 values with the ADP-Glo™ assay in in vitro kinase assays consists of two parts:
1. Kinase reaction performed under optimized conditions;
2. Detection of ADP as a product of the reaction using ADP-Glo™ system (Promega).
The tested compounds indicated in Table 5 below were dissolved in DMSO, then transferred to the V-bottom PP plate to perform nine serial dilutions (in order to obtain dose-response curves) in 25% DMSO, as indicated in Table 5 below.
The optimized conditions for performing DYRK1A in vitro kinase assay were as follows:
For compound testing, the following protocol was used: two mixes were prepared on ice, Mix 1 containing substrate, ATP and reaction buffer and Mix 2 containing reaction buffer and the kinase. 15 μL per well of Mix 1 was transferred to wells of a 96-well plate. Next, 2.5 μL of the pre-diluted compound to be tested was added to Mix 1, followed by the addition of 12.5 μL of Mix 2. Total reaction volume was 30 μL per well. The experiment was performed in duplicate for each data point being examined. Dose response curve for the positive control was carried out on each assay plate by adding the reference inhibitory compound staurosporine. For each test, three controls were also included: (i) 30 μL of the reaction mixture containing: reaction buffer, ATP, kinase, DMSO without substrate (quasi-positive control); (ii) 30 μL of the reaction mixture containing reaction buffer, substrate, ATP, DMSO without kinase (background control); (iii) 30 μL of the reaction mixture containing reaction buffer, substrate, kinase, ATP, DMSO (vehicle control). Final concentration of DMSO in the reaction was 2%. To detect the ADP amount produced during the kinase reaction, the commercially available kit ADP-Glo™ Kinase Assay (Promega, cat. No # V9103) was used. The protocol used for the detection was based on the Technical Bulletin of the ADP-Glo™ Kinase Assay (Promega) and was adapted to 96-well plate containing 30 μL reaction mixture as explained below.
30 μL of ADP-Glo™ Reagent was added to each well of a 96 well plate containing 30 μL of reaction mixture to terminate the kinase reaction and deplete the remaining ATP. The plate was incubated for 60 minutes on a shaker at rt. 60 μL of Kinase Detection Solution was then added to each well of 96-well plate containing 60 μL of the solution to convert ADP to ATP and to allow the newly synthesized ATP to be measured using a luciferase/luciferin reaction (ratio of kinase reaction volume to ADP Glo™ Reagent volume to Kinase Detection Solution volume was maintained at 1:1:2). The plate was incubated for 40 minutes on a shaker at rt, protected from light. Luminescence was measured in the plate reader, wherein the luminescent signal is proportional to the ADP concentration produced and thus correlates with kinase activity.
After data normalization to controls (complete reaction mix and no-substrate control) and transforming X values (test compound concentrations) using: X=log(X), IC50 values were determined, using the GraphPad Prism 6.0 [log(agonist) vs. normalized response—Variable slope].

[2] = target: T2, DYRK1B (Homo sapiens, UniProt Q9Y463); experiment: DYRK1B in vitro kinase assay (ADP-Glo); type: biochemical; conditions: ADP-Glo assay, ATP 15 μM (Km), substrate 7 μM, enzyme 1 nM or 0.3 nM, 1 h, rt; read-out: DYRK1B IC50
T2 construct: purchased Carna Bioscence (Carna Biosciences) 04-131
T2 sequence (Q9Y463 whole entry): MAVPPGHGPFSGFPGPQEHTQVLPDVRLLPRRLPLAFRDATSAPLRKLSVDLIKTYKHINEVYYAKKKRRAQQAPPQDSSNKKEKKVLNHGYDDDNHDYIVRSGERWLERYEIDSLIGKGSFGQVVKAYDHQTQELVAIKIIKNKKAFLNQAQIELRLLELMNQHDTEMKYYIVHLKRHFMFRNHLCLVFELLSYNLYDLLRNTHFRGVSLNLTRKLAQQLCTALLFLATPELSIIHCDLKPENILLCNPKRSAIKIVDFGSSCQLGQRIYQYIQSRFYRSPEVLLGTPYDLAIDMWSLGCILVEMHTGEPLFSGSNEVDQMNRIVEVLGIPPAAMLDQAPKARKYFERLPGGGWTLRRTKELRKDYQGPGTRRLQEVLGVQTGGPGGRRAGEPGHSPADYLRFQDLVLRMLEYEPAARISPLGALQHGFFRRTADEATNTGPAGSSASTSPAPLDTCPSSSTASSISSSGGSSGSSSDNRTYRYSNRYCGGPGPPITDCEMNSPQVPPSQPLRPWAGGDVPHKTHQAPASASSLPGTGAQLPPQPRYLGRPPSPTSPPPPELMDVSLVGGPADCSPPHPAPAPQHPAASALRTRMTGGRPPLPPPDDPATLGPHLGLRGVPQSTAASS
Description: The compounds of the present invention were tested for their inhibitory activity against DYRK1A and DYRK1B kinases once or several times. When tested more than once, the data are reported herein as average value, wherein the average value, also referred to as the mean value, represents the sum of obtained values divided by the number of times tested. DYRK-inhibitory activity of the compounds of the present invention was tested using the ADP-Glo™ assay as described in the following paragraphs. The procedure for determining the IC50 values with the ADP-Glo™ assay in in vitro kinase assays consists of two parts: […] Kinase reaction performed under optimized conditions; 2. Detection of ADP as a product of the reaction using ADP-Glo™ system (Promega). The tested compounds indicated in Table 5 below were dissolved in DMSO, then transferred to the V-bottom PP plate to perform nine serial dilutions (in order to obtain dose-response curves) in 25% DMSO, as indicated in Table 5 below. The optimized conditions for performing DYRK1B in vitro kinase assay were as follows: [table] For compound testing, the following protocol was used: two mixes were prepared on ice, Mix 1 containing substrate, ATP and reaction buffer and Mix 2 containing reaction buffer and the kinase. 15 μL per well of Mix 1 was transferred to wells of a 96-well plate. […] Total reaction volume was 30 μL per well. The experiment was performed in duplicate for each data point being examined. Dose response curve for the positive control was carried out on each assay plate by adding the reference inhibitory compound staurosporine. For each test, three controls were also included: (i) 30 μL of the reaction mixture containing: reaction buffer, ATP, kinase, DMSO without substrate (quasi-positive control); (ii) 30 μL of the reaction mixture containing reaction buffer, substrate, ATP, DMSO without kinase (background control); (iii) 30 μL of the reaction mixture containing reaction buffer, substrate, kinase, ATP, DMSO (vehicle control). Final concentration of DMSO in the reaction was 2%. To detect the ADP amount produced during the kinase reaction, the commercially available kit ADP-Glo™ Kinase Assay (Promega, cat. No # V9103) was used. The protocol used for the detection was based on the Technical Bulletin of the ADP-Glo™ Kinase Assay (Promega) and was adapted to 96-well plate containing 30 μL reaction mixture as explained below. 30 μL of ADP-Glo™ Reagent was added to each well of a 96 well plate containing 30 μL of reaction mixture to terminate the kinase reaction and deplete the remaining ATP. The plate was incubated for 60 minutes on a shaker at rt. 60 μL of Kinase Detection Solution was then added to each well of 96-well plate containing 60 μL of the solution to convert ADP to ATP and to allow the newly synthesized ATP to be measured using a luciferase/luciferin reaction (ratio of kinase reaction volume to ADP Glo™ Reagent volume to Kinase Detection Solution volume was maintained at 1:1:2). The plate was incubated for 40 minutes on a shaker at rt, protected from light. Luminescence was measured in the plate reader, wherein the luminescent signal is proportional to the ADP concentration produced and thus correlates with kinase activity. After data normalization to controls (complete reaction mix and no-substrate control) and transforming X values (test compound concentrations) using: X=log(X), IC50 values were determined, using the GraphPad Prism 6.0 [log(agonist) vs. normalized response—Variable slope].

IC50 [1] | IC50 [2] | Structure (SMILES)
< 10 nM | < 10 nM | CNC(=O)c1cnc2[nH]cc(-c3cc(F)c4nccc(N5CCC[C@@H](N)C5)c4c3)c2c1 [Example 41, 3-{4-[(3R)-3-Aminopiperidin-1-yl]-8-fluoroquinolin-6-yl}-N-methyl-1H-pyrrolo[2,3-b]pyridine-5-carboxamide hydrochloride]
< 10 nM | < 10 nM | CNC(=O)c1cnc2[nH]cc(-c3cc(F)c4nccc(N5CCC[C@H](N)C5)c4c3)c2c1 [Example 43, 3-{4-[(3S)-3-Aminopiperidin-1-yl]-8-fluoroquinolin-6-yl}-N-methyl-1H-pyrrolo[2,3-b]pyridine-5-carboxamide hydrochloride]
< 10 nM | < 10 nM | CC(=O)Nc1cnc2[nH]cc(-c3cc(F)c4nccc(-c5cccnc5)c4c3)c2c1 [Example 46, N-{3-[8-Fluoro-4-(pyridin-3-yl)quinolin-6-yl]-1H-pyrrolo[2,3-b]pyridin-5-yl}acetamide]
< 10 nM | < 10 nM | O=C(NCc1cccnc1)c1cnc2[nH]cc(-c3cc(F)c4nccc(-c5cccnc5)c4c3)c2c1 [Example 47, 3-[8-Fluoro-4-(pyridin-3-yl)quinolin-6-yl]-N-(pyridin-3-ylmethyl)-1H-pyrrolo[2,3-b]pyridine-5-carboxamide]
10 to 100 nM | < 10 nM | C=CCN(C)Cc1cnc2[nH]cc(-c3cc(F)c4nccc(-c5cccnc5)c4c3)c2c1 [Example 52, ({3-[8-Fluoro-4-(pyridin-3-yl)quinolin-6-yl]-1H-pyrrolo[2,3-b]pyridin-5-yl}methyl)(methyl)(prop-2-en-1-yl)amine]
10 to 100 nM | < 10 nM | CNC(=O)c1cnc2[nH]cc(-c3ccc4ncc([N+](=O)[O-])c(N5CCC[C@H](N)C5)c4c3)c2c1 [Example 53, 3-{4-[(3S)-3-Aminopiperidin-1-yl]-3-nitroquinolin-6-yl}-N-methyl-1H-pyrrolo[2,3-b]pyridine-5-carboxamide hydrochloride]
< 10 nM | < 10 nM | CNC(=O)c1cnc2[nH]cc(-c3ccc4ncc(NC(C)=O)c(N5CCOCC5)c4c3)c2c1 [Example 57, 3-[3-Acetamido-4-(morpholin-4-yl)quinolin-6-yl]-N-methyl-1H-pyrrolo[2,3-b]pyridine-5-carboxamide]

The remaining lines, values behind:

Structure (SMILES) | IC50 [1] | IC50 [2]
CNC(=O)c1cnc2[nH]cc(-c3cc(F)c4nccc(-c5cnccc5C)c4c3)c2c1 [Example 44, N-Methyl-3-[8-fluoro-4-(4-methylpyridin-3-yl)quinolin-6-yl]-1H-pyrrolo[2,3-b]pyridine-5-carboxamide] | < 10 nM | < 10 nM
COc1cc(-c2c[nH]c3ncc(C(N)=O)cc23)cc2c(-c3cccnc3)ccnc12 [Example 45, 3-[8-Methoxy-4-(pyridin-3-yl)quinolin-6-yl]-1H-pyrrolo[2,3-b]pyridine-5-carboxamide] | > 100 nM | 10 to 100 nM
N[C@@H]1CCCN(c2ccnc3c(F)cc(-c4c[nH]c5ncc(C(=O)NCc6cccnc6)cc45)cc23)C1 [Example 48, 3-{4-[(3R)-3-Aminopiperidin-1-yl]-8-fluoroquinolin-6-yl}-N-(pyridin-3-ylmethyl)-1H-pyrrolo[2,3-b]pyridine-5-carboxamide hydrochloride] | < 10 nM | < 10 nM
N[C@@H]1CCCN(c2ccnc3c(F)cc(-c4c[nH]c5ncc(C(=O)NCc6cncnc6)cc45)cc23)C1 [Example 49, 3-{4-[(3R)-3-Aminopiperidin-1-yl]-8-fluoroquinolin-6-yl}-N-(pyrimidin-5-ylmethyl)-1H-pyrrolo[2,3-b]pyridine-5-carboxamide hydrochloride] | < 10 nM | < 10 nM
Fc1cc(-c2c[nH]c3ncc(CNCc4ccccc4)cc23)cc2c(-c3cccnc3)ccnc12 [Example 50, Benzyl({3-[8-fluoro-4-(pyridin-3-yl)quinolin-6-yl]-1H-pyrrolo[2,3-b]pyridin-5-yl}methyl)amine] | < 10 nM | < 10 nM
N[C@@H]1CCCN(c2ccnc3c(F)cc(-c4c[nH]c5ncc(CNCc6ccccc6)cc45)cc23)C1 [Example 51, (3R)-1-(6-{5-[(Benzylamino)methyl]-1H-pyrrolo[2,3-b]pyridin-3-yl}-8-fluoroquinolin-4-yl)piperidin-3-amine] | < 10 nM | < 10 nM
CNC(=O)c1cnc2[nH]cc(-c3ccc4ncc(N)c(N5CCC[C@H](N)C5)c4c3)c2c1 [Example 54, 3-{3-Amino-4-[(3S)-3-aminopiperidin-1-yl]quinolin-6-yl}-N-methyl-1H-pyrrolo[2,3-b]pyridine-5-carboxamide hydrochloride] | < 10 nM | < 10 nM
CNC(=O)c1cnc2[nH]cc(-c3ccc4ncc(NCc5cccc(Cl)c5)c(N5CCC[C@H](N)C5)c4c3)c2c1 [Example 55, 3-{4-[(3S)-3-Aminopiperidin-1-yl]-3-{[(3-chlorophenyl)methyl]amino}quinolin-6-yl}-N-methyl-1H-pyrrolo[2,3-b]pyridine-5-carboxamide hydrochloride] | 10 to 100 nM | < 10 nM
CNC(=O)c1cnc2[nH]cc(-c3ccc4ncc(NCc5cccc(Cl)c5)c(N5CCOCC5)c4c3)c2c1 [Example 56, 3-(3-{[(3-Chlorophenyl)methyl]amino}-4-(morpholin-4-yl)quinolin-6-yl)-N-methyl-1H-pyrrolo[2,3-b]pyridine-5-carboxamide] | 10 to 100 nM | < 10 nM
